Results from the NIST ThermoML archive (doi:10.1016/j.jct.2018.01.019).
± gives the expanded uncertainty stated by the source.

Conditions: Crystal 2; DSC

Triple point temperature: 848 ± 2 K
SMILES: O=[Si]=O [silicon dioxide]
